Measurements from ChEMBL document CHEMBL5096167, “Recent advances in development of hetero-bivalent kinase inhibitors” (Eur J Med Chem, 2021).

What was measured:
[1] = molecular target: Proto-oncogene tyrosine-protein kinase Src (Gallus gallus, UniProt P00523); test: Binding affinity to chicken 6-His tagged c-Src expressed in Escherichia coli Bl21 (DE3) assessed as dissociation constant
[2] = molecular target: Mitogen-activated protein kinase 7 (Mus musculus, UniProt Q9WVS8); test: Activation of ERK5 in MEF cells; assay type: cell-based
[3] = molecular target: Proto-oncogene tyrosine-protein kinase Src (Homo sapiens, UniProt P12931); test: Irreversible inhibition of wild type c-Src (unknown origin) assessed as inhibition constant by fluorimetric assay
Proto-oncogene tyrosine-protein kinase Src (Homo sapiens, UniProt P12931), sequence (P12931 2-536 limits assumed): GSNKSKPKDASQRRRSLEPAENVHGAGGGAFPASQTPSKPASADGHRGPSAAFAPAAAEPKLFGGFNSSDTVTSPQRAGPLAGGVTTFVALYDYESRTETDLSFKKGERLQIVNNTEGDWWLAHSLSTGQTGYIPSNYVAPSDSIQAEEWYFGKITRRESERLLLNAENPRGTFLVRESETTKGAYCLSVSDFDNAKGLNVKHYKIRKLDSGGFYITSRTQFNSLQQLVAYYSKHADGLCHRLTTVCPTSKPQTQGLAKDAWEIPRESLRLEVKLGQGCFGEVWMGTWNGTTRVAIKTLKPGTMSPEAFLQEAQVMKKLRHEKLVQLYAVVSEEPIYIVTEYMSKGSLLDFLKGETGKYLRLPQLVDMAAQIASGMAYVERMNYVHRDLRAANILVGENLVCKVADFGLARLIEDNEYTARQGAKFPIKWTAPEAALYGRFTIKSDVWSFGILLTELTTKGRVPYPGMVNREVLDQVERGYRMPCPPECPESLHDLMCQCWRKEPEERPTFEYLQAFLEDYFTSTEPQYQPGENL

Mitogen-activated protein kinase 7, sequence (Q9WVS8 whole entry): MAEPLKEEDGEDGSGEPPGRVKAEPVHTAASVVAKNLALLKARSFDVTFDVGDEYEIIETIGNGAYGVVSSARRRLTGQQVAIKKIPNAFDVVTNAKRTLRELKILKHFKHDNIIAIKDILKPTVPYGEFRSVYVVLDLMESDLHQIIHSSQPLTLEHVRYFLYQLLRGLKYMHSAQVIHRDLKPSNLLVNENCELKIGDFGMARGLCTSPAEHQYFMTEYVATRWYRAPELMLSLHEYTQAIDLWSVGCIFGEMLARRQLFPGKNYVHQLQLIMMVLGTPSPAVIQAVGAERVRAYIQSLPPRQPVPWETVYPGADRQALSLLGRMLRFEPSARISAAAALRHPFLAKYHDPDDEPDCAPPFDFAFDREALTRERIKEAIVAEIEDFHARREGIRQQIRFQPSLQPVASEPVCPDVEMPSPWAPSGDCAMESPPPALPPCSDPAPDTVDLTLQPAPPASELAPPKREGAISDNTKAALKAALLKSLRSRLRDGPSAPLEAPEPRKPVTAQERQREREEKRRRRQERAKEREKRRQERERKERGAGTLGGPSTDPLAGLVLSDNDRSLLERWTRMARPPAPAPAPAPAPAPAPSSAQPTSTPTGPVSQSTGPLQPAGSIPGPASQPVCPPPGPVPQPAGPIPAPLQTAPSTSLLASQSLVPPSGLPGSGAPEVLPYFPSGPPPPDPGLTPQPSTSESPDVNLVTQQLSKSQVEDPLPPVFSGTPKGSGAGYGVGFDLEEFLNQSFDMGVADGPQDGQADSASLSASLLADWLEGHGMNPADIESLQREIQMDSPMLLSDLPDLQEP

Structure (SMILES): CCC(C)[C@@H](NC(=O)[C@@H](CCC(=O)O)NC(=O)[C@@H](CCC(=O)O)NC(=O)[C@@H](CCC(=O)O)NC(C)=O)C(=O)N[C@H](Cc1ccc(NC(=O)CCCCCn2cc(-c3ccc(-n4nc(-c5ccc(Cl)cc5)c5c(N)ncnc54)cc3)nn2)cc1)C(=O)NCC(=O)N[C@H](CCC(=O)O)C(=O)N[C@H](Cc1ccccc1)C(=O)N[C@H](CCC(=O)O)C(=O)N[C@H](C)C(N)=O (stereo partly drawn)
- Kd [1]: 0.28 nM

Structure (SMILES): CN1CCN(c2cnc3c(C4CCN(C(=O)c5ccc(OC(F)(F)F)cc5N)CC4)ncnc3c2)CC1 [BAY-885]
- IC50 [2]: 120 nM

Structure (SMILES): O=C(CCS)Nc1cccc(Nc2nccc(Nc3cc(C4CC4)[nH]n3)n2)c1
- Ki [3]: 20 nM
